Results reported in ChEMBL document CHEMBL1268897, “Discovery and optimization of adamantyl carbamate inhibitors of 11β-HSD1” (Bioorg Med Chem Lett, 2010).

Assays:
Cytochrome P450 3A4 = Cytochrome P450 3A4 (Homo sapiens, UniProt P08684); assay: Inhibition of CYP3A4; type: ADME
Cytochrome P450 2C9 = Cytochrome P450 2C9 (Homo sapiens, UniProt P11712); assay: Inhibition of CYP2C9; type: ADME
Cytochrome P450 2D6 = Cytochrome P450 2D6 (Homo sapiens, UniProt P10635); assay: Inhibition of CYP2D6; type: ADME
in vitro [1] = conditions: rat, liver microsomes
[2] = target: T1, 11-beta-hydroxysteroid dehydrogenase 1 (Homo sapiens, UniProt P28845); assay: Inhibition of recombinant 11betaHSD1 expressed in CHO cells assessed as [3H]-cortisone to [3H]-cortisol by microscintillation plate reader; type: cell-based
[3] = target: T1, 11-beta-hydroxysteroid dehydrogenase 1; assay: Inhibition of 11betaHSD1 in human platelet assessed as [3H]-cortisone to [3H]-cortisol by microscintillation plate reader
[4] = target: T2, 3 beta-hydroxysteroid dehydrogenase/Delta 5-->4-isomerase type 2 (Homo sapiens, UniProt P26439); assay: Inhibition of 3betaHSD2
T2 sequence (P26439 whole entry): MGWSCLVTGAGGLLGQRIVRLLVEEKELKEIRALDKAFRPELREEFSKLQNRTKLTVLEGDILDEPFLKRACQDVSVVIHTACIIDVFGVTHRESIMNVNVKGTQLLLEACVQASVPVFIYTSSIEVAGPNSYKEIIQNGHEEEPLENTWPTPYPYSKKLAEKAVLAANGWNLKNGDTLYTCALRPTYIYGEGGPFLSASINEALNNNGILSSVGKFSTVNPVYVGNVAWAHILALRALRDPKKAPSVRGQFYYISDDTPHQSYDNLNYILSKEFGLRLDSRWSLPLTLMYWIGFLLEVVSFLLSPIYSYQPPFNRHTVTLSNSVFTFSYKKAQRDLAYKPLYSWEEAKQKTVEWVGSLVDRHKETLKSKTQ

[5] = target: T3, 11-beta-hydroxysteroid dehydrogenase type 2 (Homo sapiens, UniProt P80365); assay: Inhibition of 11betaHSD2
T3 sequence (P80365 whole entry): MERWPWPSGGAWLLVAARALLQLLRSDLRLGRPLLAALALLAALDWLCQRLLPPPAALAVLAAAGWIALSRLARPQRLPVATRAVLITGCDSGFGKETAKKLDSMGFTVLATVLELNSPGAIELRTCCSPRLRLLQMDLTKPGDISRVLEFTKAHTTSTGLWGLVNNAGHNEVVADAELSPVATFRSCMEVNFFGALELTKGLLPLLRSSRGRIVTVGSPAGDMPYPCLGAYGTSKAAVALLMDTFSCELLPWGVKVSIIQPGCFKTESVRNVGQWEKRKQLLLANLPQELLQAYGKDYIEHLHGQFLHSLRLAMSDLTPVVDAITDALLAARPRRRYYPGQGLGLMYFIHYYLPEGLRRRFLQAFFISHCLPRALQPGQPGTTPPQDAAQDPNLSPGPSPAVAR

[6] = target: T1, 11-beta-hydroxysteroid dehydrogenase 1; assay: Inhibition of recombinant 11betaHSD1 expressed in CHO cells assessed as [3H]-cortisone to [3H]-cortisol by microscintillation plate reader in presence of plasma; type: cell-based
in vitro [7] = conditions: rat, hepatocytes
Description: Metabolic stability in rat hepatocytes assessed as hepatic clearance

[8] = target: 17-beta-hydroxysteroid dehydrogenase type 1 (Homo sapiens) (UniProt P14061); assay: Inhibition of 17betaHSD1
[9] = AUC in rat at 1 umol/kg, iv and 5 umol/kg, po; conditions: plasma
[10] = Clearance in rat at 1 umol/kg, iv and 5 umol/kg, po; conditions: in vivo
[11] = Mean residence time in rat at 1 umol/kg, iv and 5 umol/kg, po; conditions: in vivo
[12] = Oral bioavailability in rat at 1 umol/kg, iv and 5 umol/kg, po; conditions: in vivo
Rattus norvegicus = assay: Volume of distribution in rat at 1 umol/kg, iv and 5 umol/kg, po; conditions: in vivo
Bile acid receptor = target: T4, Bile acid receptor (Homo sapiens, UniProt Q96RI1); assay: Activity against FXR
T4 sequence (Q96RI1 whole entry): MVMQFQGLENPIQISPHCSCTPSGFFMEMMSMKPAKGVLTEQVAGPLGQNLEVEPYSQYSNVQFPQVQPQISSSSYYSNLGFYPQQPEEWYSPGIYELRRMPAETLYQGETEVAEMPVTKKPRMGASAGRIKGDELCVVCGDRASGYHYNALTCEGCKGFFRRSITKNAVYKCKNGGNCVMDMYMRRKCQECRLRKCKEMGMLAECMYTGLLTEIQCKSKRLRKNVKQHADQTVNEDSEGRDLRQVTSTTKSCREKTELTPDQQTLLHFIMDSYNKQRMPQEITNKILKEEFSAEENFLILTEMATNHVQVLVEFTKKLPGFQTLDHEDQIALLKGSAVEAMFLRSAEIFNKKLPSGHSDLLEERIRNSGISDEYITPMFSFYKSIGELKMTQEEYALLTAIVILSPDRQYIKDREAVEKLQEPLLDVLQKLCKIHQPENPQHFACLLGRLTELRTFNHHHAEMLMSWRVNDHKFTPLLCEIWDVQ

Glucocorticoid receptor = target: T5, Glucocorticoid receptor (Homo sapiens, UniProt P04150); assay: Activity against GR
T5 sequence (P04150 whole entry): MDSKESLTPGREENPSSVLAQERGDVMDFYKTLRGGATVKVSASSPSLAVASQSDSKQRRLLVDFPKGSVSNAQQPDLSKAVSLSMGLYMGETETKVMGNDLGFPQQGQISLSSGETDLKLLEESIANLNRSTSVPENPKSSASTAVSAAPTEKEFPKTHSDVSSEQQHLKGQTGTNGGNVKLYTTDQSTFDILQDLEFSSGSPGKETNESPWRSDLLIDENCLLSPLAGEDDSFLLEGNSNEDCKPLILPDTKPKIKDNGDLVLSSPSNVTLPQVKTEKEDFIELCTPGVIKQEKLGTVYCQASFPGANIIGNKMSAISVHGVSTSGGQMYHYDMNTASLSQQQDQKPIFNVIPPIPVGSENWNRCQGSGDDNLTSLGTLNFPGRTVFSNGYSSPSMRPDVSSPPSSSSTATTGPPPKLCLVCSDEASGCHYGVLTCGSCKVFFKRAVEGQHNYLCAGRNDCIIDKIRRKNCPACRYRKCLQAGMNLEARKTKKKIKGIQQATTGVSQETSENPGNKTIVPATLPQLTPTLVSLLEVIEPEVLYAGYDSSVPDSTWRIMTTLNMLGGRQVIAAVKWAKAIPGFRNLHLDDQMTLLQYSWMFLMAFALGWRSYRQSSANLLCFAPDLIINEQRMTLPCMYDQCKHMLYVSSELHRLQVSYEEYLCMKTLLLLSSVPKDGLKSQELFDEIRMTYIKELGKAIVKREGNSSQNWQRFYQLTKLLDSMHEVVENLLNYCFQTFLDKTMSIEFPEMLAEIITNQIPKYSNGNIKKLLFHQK

Chain of Cytochrome P450 3A4 (P08684 whole entry): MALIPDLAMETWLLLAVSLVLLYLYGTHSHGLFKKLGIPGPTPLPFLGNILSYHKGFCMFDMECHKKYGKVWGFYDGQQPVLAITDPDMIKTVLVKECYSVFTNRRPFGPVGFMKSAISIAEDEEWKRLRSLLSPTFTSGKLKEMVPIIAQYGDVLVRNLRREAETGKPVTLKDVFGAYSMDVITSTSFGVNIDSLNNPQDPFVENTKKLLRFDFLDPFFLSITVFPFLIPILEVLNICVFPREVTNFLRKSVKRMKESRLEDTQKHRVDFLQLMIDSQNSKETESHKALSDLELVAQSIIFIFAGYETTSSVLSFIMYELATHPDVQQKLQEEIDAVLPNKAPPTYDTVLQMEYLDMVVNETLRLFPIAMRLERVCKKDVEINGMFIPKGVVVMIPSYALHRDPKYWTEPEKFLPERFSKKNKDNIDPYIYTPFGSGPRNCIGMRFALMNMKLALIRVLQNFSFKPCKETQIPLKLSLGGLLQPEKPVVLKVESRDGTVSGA
Chain of Cytochrome P450 2D6 (P10635 whole entry): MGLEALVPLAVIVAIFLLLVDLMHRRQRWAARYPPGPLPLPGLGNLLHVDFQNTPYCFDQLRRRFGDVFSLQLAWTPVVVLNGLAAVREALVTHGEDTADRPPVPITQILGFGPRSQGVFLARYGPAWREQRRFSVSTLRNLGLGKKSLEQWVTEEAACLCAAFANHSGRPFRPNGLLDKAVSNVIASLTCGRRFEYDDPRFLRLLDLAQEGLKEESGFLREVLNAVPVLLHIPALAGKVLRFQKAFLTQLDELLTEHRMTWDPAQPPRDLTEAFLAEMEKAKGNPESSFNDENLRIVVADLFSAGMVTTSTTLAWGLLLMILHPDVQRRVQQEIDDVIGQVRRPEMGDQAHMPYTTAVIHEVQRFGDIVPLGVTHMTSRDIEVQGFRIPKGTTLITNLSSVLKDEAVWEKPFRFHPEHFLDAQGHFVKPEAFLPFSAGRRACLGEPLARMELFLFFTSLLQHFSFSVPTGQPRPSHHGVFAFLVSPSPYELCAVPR
Chain of Cytochrome P450 2C9 (P11712 whole entry): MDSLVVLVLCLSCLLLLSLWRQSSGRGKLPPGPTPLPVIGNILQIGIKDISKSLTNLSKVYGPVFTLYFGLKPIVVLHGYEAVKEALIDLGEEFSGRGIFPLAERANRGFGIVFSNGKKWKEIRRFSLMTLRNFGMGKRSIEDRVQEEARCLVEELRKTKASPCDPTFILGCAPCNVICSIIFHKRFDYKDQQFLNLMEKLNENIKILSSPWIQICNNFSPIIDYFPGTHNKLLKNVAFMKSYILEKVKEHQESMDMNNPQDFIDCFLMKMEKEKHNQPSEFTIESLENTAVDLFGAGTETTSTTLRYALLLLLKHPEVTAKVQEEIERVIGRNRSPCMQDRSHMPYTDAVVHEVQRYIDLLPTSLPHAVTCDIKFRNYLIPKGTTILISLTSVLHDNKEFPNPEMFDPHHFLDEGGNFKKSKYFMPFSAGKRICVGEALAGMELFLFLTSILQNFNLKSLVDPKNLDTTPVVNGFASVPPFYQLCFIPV
T1 sequence (P28845 whole entry): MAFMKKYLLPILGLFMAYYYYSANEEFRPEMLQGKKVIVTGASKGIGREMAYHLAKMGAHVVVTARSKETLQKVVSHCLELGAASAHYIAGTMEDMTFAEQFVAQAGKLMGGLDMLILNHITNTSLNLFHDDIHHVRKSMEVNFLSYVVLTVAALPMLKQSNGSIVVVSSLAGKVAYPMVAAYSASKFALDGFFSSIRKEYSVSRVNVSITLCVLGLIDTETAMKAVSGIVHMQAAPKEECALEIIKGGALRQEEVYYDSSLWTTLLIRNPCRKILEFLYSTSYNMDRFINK
Chain of 17-beta-hydroxysteroid dehydrogenase type 1 (Homo sapiens) (P14061 whole entry, looked up): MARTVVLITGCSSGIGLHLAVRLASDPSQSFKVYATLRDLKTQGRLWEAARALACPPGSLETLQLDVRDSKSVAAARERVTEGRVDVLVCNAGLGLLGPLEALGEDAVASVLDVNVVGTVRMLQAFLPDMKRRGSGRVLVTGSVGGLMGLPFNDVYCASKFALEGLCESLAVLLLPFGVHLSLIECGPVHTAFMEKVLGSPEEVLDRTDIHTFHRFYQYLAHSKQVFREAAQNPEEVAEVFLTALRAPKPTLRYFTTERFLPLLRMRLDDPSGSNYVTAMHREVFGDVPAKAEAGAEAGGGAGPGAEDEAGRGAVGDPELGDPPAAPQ

Row | SMILES | IC50 (Cytochrome P450 3A4) [µM] | IC50 (Cytochrome P450 2C9) [µM] | IC50 (Cytochrome P450 2D6) [µM] | half-life (in vitro [1]) [min] | IC50 [2] [µM] | IC50 [3] [µM] | also measured
1 | NC(=O)[C@]12CC3CC(C1)[C@@H](OC(=O)N1CC[C@H](Nc4ccc(C(F)(F)F)cn4)C1)C(C3)C2 | 10.3 | 2.4 | 11.6 | > 60 | – | – | –
2 | N#Cc1ccc(N[C@@H]2CCN(C(=O)O[C@H]3C4CC5CC3C[C@](C(N)=O)(C5)C4)C2)nc1 | 14.2 | 23.1 | 25 | 46 | 0.0015 | 0.0027 | IC50 [4]: > 10 µM; IC50 [5]: 8.65 µM; IC50 [6]: 0.0032 µM; CLhep predicted (in vitro [7]): 33 mL/min/kg; IC50 [8]: > 10 µM; AUC [9]: 0.209 µM·h; clearance [10]: 80 mL/min/kg; MRT [11]: 30 min; bioavailability [12]: 27%; Vd (Rattus norvegicus): 2.2 L/kg
3 | Cc1cc(N[C@@H]2CCN(C(=O)O[C@H]3C4CC5CC3C[C@](C(N)=O)(C5)C4)C2)nc(C)n1 | – | – | – | – | 0.0207 | > 0.1 | –
4 | NC(=O)[C@]12CC3CC(C1)[C@H](OC(=O)N1CC[C@H](Nc4ncccc4C(F)(F)F)C1)C(C3)C2 | 8.5 | 8 | > 30 | 11 | – | – | –
5 | CC(C)(C)CC(=O)N[C@@H]1CCN(C(=O)OC2C3CC4CC(C3)CC2C4)C1 (some centres undefined) | – | – | – | – | 0.068 | – | –
6 | NC(=O)[C@]12CC3CC(C1)[C@@H](OC(=O)N1CC[C@@H](Nc4nnc(C(F)(F)F)s4)C1)C(C3)C2 | – | – | – | – | 0.0213 | > 0.1 | –
7 | NC(=O)[C@]12CC3CC(C1)[C@@H](OC(=O)N1CC[C@@H](Nc4ncccc4C(F)(F)F)C1)C(C3)C2 | 3.3 | 9.4 | – | 30 | – | – | –
8 | CC(C)(C)OC(=O)N[C@H]1CCN(C(=O)O[C@H]2C3CC4CC2C[C@](C(N)=O)(C4)C3)C1 | – | – | – | – | 0.0044 | 0.0176 | –
9 | OC1C2CC3CC(C2)CC1C3 (centres undefined) [ADAMANTAN-2-OL] | > 30 | 22 | > 30 | 2 | – | – | –
10 | CC(C)(C)OC(=O)N[C@@H]1CCN(C(=O)O[C@H]2C3CC4CC2C[C@](C(N)=O)(C4)C3)C1 | > 30 | > 30 | > 30 | 30 | 0.0034 | 0.0075 | EC50 (Bile acid receptor): > 10 µM; EC50 (Glucocorticoid receptor): > 10 µM
11 | O=C(OC1C2CC3CC(C2)CC1C3)N1CCCCC1 (centres undefined) | – | – | – | 2 | – | – | –
12 | N#Cc1cccnc1N[C@H]1CCN(C(=O)O[C@H]2C3CC4CC2C[C@](C(N)=O)(C4)C3)C1 | 18.6 | > 30 | > 30 | 25 | 0.0026 | 0.0076 | –
13 | CC(C)(C)OC(=O)N[C@@H]1CCN(C(=O)OC2C3CC4CC(C3)CC2C4)C1 (some centres undefined) | > 30 | 11.4 | > 30 | 2 | – | – | –
14 | NC(=O)[C@]12CC3CC(C1)[C@@H](OC(=O)N1CC[C@@H](Nc4cccc(C(F)(F)F)n4)C1)C(C3)C2 | 4.8 | 2.4 | 5.9 | 7 | – | – | –
15 | NC(=O)[C@]12CC3CC(C1)[C@@H](OC(=O)N1CC[C@@H](Nc4ccc(C(F)(F)F)cn4)C1)C(C3)C2 | 7.2 | 4.1 | 11.6 | 47 | – | – | –
16 | CC(C)(C)OC(=O)N[C@@H]1CCN(C(=O)O[C@H]2C3CC4CC2C[C@](C(C)(C)O)(C4)C3)C1 | – | – | – | – | 0.098 | > 0.1 | –
17 | N#Cc1ccc(N[C@H]2CCN(C(=O)O[C@H]3C4CC5CC3C[C@](C(N)=O)(C5)C4)C2)nc1 | 26.6 | 20 | 16.6 | 25 | 0.0017 | 0.0052 | –
18 | N#Cc1cccnc1N[C@@H]1CCN(C(=O)O[C@H]2C3CC4CC2C[C@](C(N)=O)(C4)C3)C1 | 17.1 | > 30 | > 30 | > 60 | 0.00087 | 0.0004 | IC50 [4]: > 10 µM; IC50 [5]: 7.35 µM; IC50 [6]: 0.0024 µM; CLhep predicted (in vitro [7]): 41 mL/min/kg; IC50 [8]: > 10 µM; AUC [9]: 0.398 µM·h; clearance [10]: 42 mL/min/kg; MRT [11]: 18 min; bioavailability [12]: 42%; Vd (Rattus norvegicus): 0.7 L/kg
